Laboratory results taken from ChEMBL document CHEMBL3886339, “mGluR4 allosteric potentiators, compositions, and methods of treating neurological dysfunction” (2015).

Target: Metabotropic glutamate receptor 4 (Homo sapiens, UniProt Q14833)
Assay type: functional, cell-based, HEK293

Sequence of Metabotropic glutamate receptor 4 (Q14833 whole entry): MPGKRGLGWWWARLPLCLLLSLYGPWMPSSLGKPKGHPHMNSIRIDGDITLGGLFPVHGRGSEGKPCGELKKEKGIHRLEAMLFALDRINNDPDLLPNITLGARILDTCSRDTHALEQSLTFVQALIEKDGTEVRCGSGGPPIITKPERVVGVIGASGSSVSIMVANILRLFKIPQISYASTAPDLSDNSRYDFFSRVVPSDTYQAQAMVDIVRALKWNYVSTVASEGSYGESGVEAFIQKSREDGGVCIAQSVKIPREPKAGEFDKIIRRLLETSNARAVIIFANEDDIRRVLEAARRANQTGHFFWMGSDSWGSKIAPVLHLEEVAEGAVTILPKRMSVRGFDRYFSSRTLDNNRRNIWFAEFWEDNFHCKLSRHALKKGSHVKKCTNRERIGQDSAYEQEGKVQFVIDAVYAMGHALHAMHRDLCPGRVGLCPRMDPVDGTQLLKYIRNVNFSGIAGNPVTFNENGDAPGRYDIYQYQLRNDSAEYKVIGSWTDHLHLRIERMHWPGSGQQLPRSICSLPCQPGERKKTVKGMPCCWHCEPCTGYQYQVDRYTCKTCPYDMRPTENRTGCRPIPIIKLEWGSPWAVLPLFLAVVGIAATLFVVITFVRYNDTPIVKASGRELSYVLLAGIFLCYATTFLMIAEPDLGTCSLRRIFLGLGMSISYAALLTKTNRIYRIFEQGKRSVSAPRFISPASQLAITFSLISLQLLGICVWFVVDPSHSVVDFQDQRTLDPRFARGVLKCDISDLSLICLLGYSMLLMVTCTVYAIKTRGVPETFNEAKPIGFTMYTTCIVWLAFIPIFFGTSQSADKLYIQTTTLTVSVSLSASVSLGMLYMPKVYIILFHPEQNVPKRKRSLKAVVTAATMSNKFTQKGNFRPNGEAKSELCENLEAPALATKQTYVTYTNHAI

EC50 [nM] | SMILES
144 | Cc1ccc(S(=O)(=O)n2cc(NC(=O)c3ccccn3)cn2)cc1C
266 | O=C(Nc1cnn(S(=O)(=O)c2ccc(C(F)(F)F)cc2)c1)c1ccccn1
4160 | O=C(Nc1cnn(S(=O)(=O)c2ccc(F)c(F)c2)c1)c1nccs1
151 | Cc1cc(S(=O)(=O)n2cc(NC(=O)c3ccccn3)cn2)ccc1Cl
234 | O=C(Nc1cnn(S(=O)(=O)c2cc(F)c(F)c(F)c2)c1)c1ccccn1
5240 | O=C(Nc1cnn(S(=O)(=O)c2cccc(Cl)c2F)c1)c1ccccn1
204 | O=C(Nc1cnn(S(=O)(=O)c2ccc(Cl)c(Cl)c2)c1)c1ccccn1
1770 | O=C(Nc1cnn(S(=O)(=O)c2cc(F)c(F)cc2F)c1)c1ccccn1
2340 | Cc1cc(F)ccc1S(=O)(=O)n1cc(NC(=O)c2ccccn2)cn1
234 | Cc1cccc(S(=O)(=O)n2cc(NC(=O)c3nccs3)cn2)c1
652 | Cc1ccc(S(=O)(=O)n2cc(NC(=O)c3nccs3)cn2)cc1C
170 | COc1ccc(S(=O)(=O)n2cc(NC(=O)c3ccccn3)cn2)cc1
486 | Cc1ccc(S(=O)(=O)n2cc(NC(=O)c3ccccn3)cn2)c(C)c1
1170 | O=C(Nc1cnn(S(=O)(=O)c2cc(F)c(F)cc2Cl)c1)c1ccccn1
324 | Cc1ccc(S(=O)(=O)n2cc(NC(=O)c3nccs3)cn2)cc1
137 | Cc1ccc(S(=O)(=O)n2cc(NC(=O)c3ccccn3)cn2)cc1F
260 | COc1ccc(S(=O)(=O)n2cc(NC(=O)c3ccccn3)cn2)cc1Cl
138 | O=C(Nc1cnn(S(=O)(=O)c2ccc(F)c(Cl)c2)c1)c1ccccn1
9880 | Cc1ccc(S(=O)(=O)n2cc(NC(=O)c3ccccn3)cn2)cc1
128 | O=C(Nc1cnn(S(=O)(=O)c2ccc(Cl)cc2F)c1)c1ccccn1
2250 | O=C(Nc1cnn(S(=O)(=O)c2cc(Cl)ccc2F)c1)c1ccccn1
282 | O=C(Nc1cnn(S(=O)(=O)c2ccc(F)c(F)c2F)c1)c1ccccn1
197 | O=C(Nc1cnn(S(=O)(=O)c2cc(Cl)ccc2Cl)c1)c1ccccn1
1620 | O=C(Nc1cnn(S(=O)(=O)c2ccc(F)cc2F)c1)c1ccccn1
3910 | O=C(Nc1cnn(S(=O)(=O)c2ccc(Cl)c(F)c2)c1)c1ccccn1
163 | Cc1cccc(S(=O)(=O)n2cc(NC(=O)c3ccccn3)cn2)c1
248 | CCc1ccc(S(=O)(=O)n2cc(NC(=O)c3ccccn3)cn2)cc1
1740 | O=C(Nc1cnn(S(=O)(=O)c2ccc(F)c(F)c2)c1)c1ccccn1
124 | Cc1cc(S(=O)(=O)n2cc(NC(=O)c3ccccn3)cn2)ccc1F
